# Experimental data from patent publication US20220160714A1, “METHODS FOR TREATING COLORECTAL CANCER” (ICAHN SCHOOL OF MEDICINE AT MOUNT SINAI, priority 2019, published 2022).
# System: patient's personalized Drosophila model 006.1
# Experiment: Trametinib combination drug screen (Table 4B, experimental pupae numbers)
# Assay type: in vivo
# Description: After food was solidified, a mixture of experimental and control embryos (at a 1:2 ratio based on expected Mendelian ratios) were aliquoted into each drug/food tube (15 μl/tube). […] Embryos for drug screening were generated from the following cross in cages: w/Y; UAS-006.1; UAS ago^RNAi UAS-apc^RNAi/Stub-gal80-T Xw UAS-dicer2; +; byn-gal4 UAS-GFP tub-gal80^ts/TM6, Hu, Tb. Embryos were obtained from each cage for 4-5 consecutive days by providing daily a fresh apple juice plate with yeast paste. Egg lays were performed at 22° C. to minimize transgene expression during embryogenesis to prevent embryonic defects or lethality that could not potentially be rescued by drug feeding. After embryos were aliquoted, drug tubes were transferred to 25° C. to induce transgene expression. After 2 weeks, the number of surviving experimental pupae (EP) were counted in each tube.
# DMSO and Trametinib alone served as controls. […] Statistical analysis was performed as described above.
# [1] = drug screened in combination with trametinib
# [2] = drug screened in combination with trametinib, mean of 8 replicates
Structure (SMILES),"EP (raw experimental pupae numbers), replicate 1 [1]","EP (raw experimental pupae numbers), replicate 2 [1]","EP (raw experimental pupae numbers), replicate 3 [1]","EP (raw experimental pupae numbers), replicate 4 [1]","EP (raw experimental pupae numbers), replicate 5 [1]","EP (raw experimental pupae numbers), replicate 6 [1]","EP (raw experimental pupae numbers), replicate 7 [1]","EP (raw experimental pupae numbers), replicate 8 [1]",EP mean [2],EP mean (in vivo)
C=CC[C@@H]1/C=C(\C)C[C@H](C)C[C@H](OC)[C@H]2O[C@@](O)(C(=O)C(=O)N3CCCC[C@H]3C(=O)O[C@H](/C(C)=C/[C@@H]3CC[C@@H](O)[C@H](OC)C3)[C@H](C)[C@@H](O)CC1=O)[C@H](C)C[C@@H]2OC [Tacrolimus],0,0,0,3,0,1,2,0,0.75,–
Cc1cnc(NC(=O)C2=C(O)c3ccccc3S(=O)(=O)N2C)s1 [meloxicam],0,0,0,3,1,1,0,1,–,–
CC(C)C[C@H](NC(=O)CNC(=O)c1cc(Cl)ccc1Cl)B(O)O [ixazomib],1,1,1,0,1,2,0,0,0.75,–
COc1ccc2c(c1)c(CC(=O)O)c(C)n2C(=O)c1ccc(Cl)cc1 [indomethacin],0,0,0,0,1,0,0,0,0.125,–
CCC[C@@H]1CC(=O)N([C@@H](CC)C(N)=O)C1 [brivaracetam],0,0,2,0,2,1,1,1,–,0.875
CCOC(=O)N[C@@H]1CC[C@@H]2[C@@H](C1)C[C@H]1C(=O)O[C@H](C)[C@H]1[C@H]2/C=C/c1ccc(-c2cccc(F)c2)cn1 [vorapaxar],0,0,1,0,3,0,0,0,0.5,–
